Measured values from paper PMC10985906, “Anticholinesterase activities of novel isoindolin-1,3-dione-based acetohydrazide derivatives: design, synthesis, biological evaluation, molecular dynamic study” (BMC Chemistry, 2024).
Where two headings read alike, the source gives them in different places.

Experiments:
[1] = system: Aß-aggregation; settings: at 10 µM; previously reported; cited from earlier work
[2] = biological target: T1, AChE (Homo sapiens, UniProt P22303); assay: biochemical; settings: mean ± SD; modified Ellman, 37 °C, pH 7.4
[3] = biological target: T2, BChE (Homo sapiens, UniProt P06276); assay: biochemical; settings: mean ± SD; modified Ellman, 37 °C, pH 7.4
[4] = system: hBACE-1; settings: at 50 µM; previously reported; cited from earlier work
[5] = biological target: T2, BChE; settings: at 10 µM; previously reported; cited from earlier work
[6] = biological target: T1, AChE; assay: Enzyme kinetics against AChE (Lineweaver–Burk); assay type: biochemical
Description: (§1) The ChE inhibition reactions were determined by Ellman’s assay at different concentrations of 8a and 8g. […]. The inhibition constant Ki was calculated by the plot of slopes versus the corresponding concentrations of the inhibitors.

[7] = biological target: T2, BChE; assay: Enzyme kinetics against BChE (Lineweaver–Burk); assay type: biochemical
Description: as §1

[8] = biological target: T2, BChE; settings: previously reported; cited from earlier work
[9] = secondary plot of Lineweaver–Burk plots

T1 sequence (P22303 32-614): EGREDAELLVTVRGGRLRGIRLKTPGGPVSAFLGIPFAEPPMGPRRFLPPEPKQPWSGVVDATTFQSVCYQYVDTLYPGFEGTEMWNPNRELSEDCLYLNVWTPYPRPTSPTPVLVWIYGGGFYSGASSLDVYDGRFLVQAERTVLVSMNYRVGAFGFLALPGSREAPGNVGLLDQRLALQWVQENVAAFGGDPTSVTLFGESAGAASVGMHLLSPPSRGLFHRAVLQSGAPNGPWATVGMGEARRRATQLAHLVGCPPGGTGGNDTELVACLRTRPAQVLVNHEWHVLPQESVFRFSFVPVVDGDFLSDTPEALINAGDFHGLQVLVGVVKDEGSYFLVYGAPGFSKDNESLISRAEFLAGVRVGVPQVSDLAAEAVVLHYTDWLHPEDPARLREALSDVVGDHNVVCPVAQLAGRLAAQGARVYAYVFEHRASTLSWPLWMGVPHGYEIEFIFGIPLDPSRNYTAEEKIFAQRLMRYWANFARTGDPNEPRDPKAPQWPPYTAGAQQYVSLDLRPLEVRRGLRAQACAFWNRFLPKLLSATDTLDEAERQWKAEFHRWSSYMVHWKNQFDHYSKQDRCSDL
T2 sequence (P06276 29-602): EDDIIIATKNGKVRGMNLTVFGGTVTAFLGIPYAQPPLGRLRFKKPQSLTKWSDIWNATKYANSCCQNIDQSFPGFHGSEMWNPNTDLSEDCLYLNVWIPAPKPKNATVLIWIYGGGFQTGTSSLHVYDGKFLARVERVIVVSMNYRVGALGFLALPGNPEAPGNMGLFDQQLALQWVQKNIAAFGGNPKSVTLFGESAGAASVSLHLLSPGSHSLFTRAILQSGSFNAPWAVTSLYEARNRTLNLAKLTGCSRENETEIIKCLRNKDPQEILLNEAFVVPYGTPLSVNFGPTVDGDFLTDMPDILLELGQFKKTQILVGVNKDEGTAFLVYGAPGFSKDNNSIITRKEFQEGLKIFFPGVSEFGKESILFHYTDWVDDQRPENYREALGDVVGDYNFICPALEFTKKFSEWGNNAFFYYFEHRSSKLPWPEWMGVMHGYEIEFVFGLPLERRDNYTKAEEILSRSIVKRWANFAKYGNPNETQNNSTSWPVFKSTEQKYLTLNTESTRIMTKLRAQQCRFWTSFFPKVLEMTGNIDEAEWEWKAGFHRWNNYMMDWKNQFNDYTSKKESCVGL

## Oc1ccc(/C=C/c2cc(O)cc(O)c2)cc1 [resveratrol]
[1]
  Aß-aggregation inhibition: 78.5% ± 5.2

## CCN(CC(=O)NN=Cc1cc([N+](=O)[O-])ccc1OCCCN1C(=O)c2ccccc2C1=O)Cc1ccccc1 [Compound 8c, 2-(benzyl(ethyl)amino)-Nʹ-(2-(3-(1,3-dioxoisoindolin-2-yl)propoxy)-5-nitrobenzylidene)acetohydrazide]
[2]
  IC50: 160 ± 40 nM
[3]
  IC50: 21800 ± 1300 nM

## 2-(benzylamino-2-hydroxyalkyl)isoindoline-1,3-dione
[1]
  Aß-aggregation inhibition: 24.9%
[4]
  hBACE-1 inhibition: 43.7%
[5]
  BChE inhibition: 14.1% ± 5.8

## CN(CC(=O)NN=Cc1ccccc1OCCCN1C(=O)c2ccccc2C1=O)Cc1ccccc1 [Compound 8a, 2-(benzyl(methyl)amino)-Nʹ-(2-(3-(1,3-dioxoisoindolin-2-yl)propoxy)benzylidene)acetohydrazide]
[6]; Lineweaver–Burk plot
  mode of inhibition against AChE: competitive
[6]; [9]
  Ki: 88.6 nM
[2]
  IC50: 110 ± 50 nM
[3]
  IC50: 30200 ± 2800 nM

## CCN(CC(=O)NN=Cc1ccc(OCCCN2C(=O)c3ccccc3C2=O)c(OC)c1)Cc1ccccc1 [Compound 8h, 2-(benzyl(ethyl)amino)-Nʹ-(4-(3-(1,3-dioxoisoindolin-2-yl)propoxy)-3-methoxybenzylidene)acetohydrazide]
[2]
  IC50: 170 ± 60 nM
[3]
  IC50: 13200 ± 1400 nM

## CCN(CC(=O)NN=Cc1ccc(OC)c(OCCCN2C(=O)c3ccccc3C2=O)c1)Cc1ccccc1 [Compound 8e, 2-(benzyl(ethyl)amino)-Nʹ-(3-(3-(1,3-dioxoisoindolin-2-yl)propoxy)-4-methoxybenzylidene)acetohydrazide]
[2]
  IC50: 210 ± 30 nM
[3]
  IC50: 14700 ± 200 nM

## CN(CC(=O)NN=Cc1ccc(OCCCN2C(=O)c3ccccc3C2=O)cc1)Cc1ccccc1 [Compound 8f, 2-(benzyl(methyl)amino)-Nʹ-(4-(3-(1,3-dioxoisoindolin-2-yl)propoxy)benzylidene)acetohydrazide]
[2]
  IC50: 320 ± 20 nM
[3]
  IC50: 15700 ± 1200 nM

## CCN(CC(=O)NN=Cc1ccccc1OCCCN1C(=O)c2ccccc2C1=O)Cc1ccccc1 [Compound 8b, 2-(benzyl(ethyl)amino)-Nʹ-(2-(3-(1,3-dioxoisoindolin-2-yl)propoxy)benzylidene)acetohydrazide]
[2]
  IC50: 180 ± 10 nM
[3]
  IC50: 26800 ± 800 nM

## CCN(CC(=O)NN=Cc1ccc(OCCCN2C(=O)c3ccccc3C2=O)cc1)Cc1ccccc1 [Compound 8g, 2-(benzyl(ethyl)amino)-Nʹ-(4-(3-(1,3-dioxoisoindolin-2-yl)propoxy)benzylidene)acetohydrazide]
[7]; Lineweaver–Burk plot
  mode of inhibition against BChE: competitive
[7]; [9]
  Ki: 3650 nM
[2]
  IC50: 860 ± 20 nM
[3]
  IC50: 5700 ± 200 nM

## CN(C)C(=O)Oc1cccc([N+](C)(C)C)c1 [neostigmine]
[8]
  IC50: 84 nM

## CCN(CC(=O)NN=Cc1cccc(OCCCN2C(=O)c3ccccc3C2=O)c1)Cc1ccccc1 [Compound 8d, 2-(benzyl(ethyl)amino)-N'-(3-(3-(1,3-dioxoisoindolin-2-yl)propoxy)benzylidene)acetohydrazide]
[2]
  IC50: 160 ± 30 nM
[3]
  IC50: 11800 ± 500 nM
